Key:
[1] = test system: 5-HT induced amplification of platelet aggregation; test: Collagen-elicited aggregation of rat platelet rich plasma, amplified by serotonin (Lumi-aggregometer); format: cell-based, Spraque-Dawley rats; settings: rat PRP; for amplifying effects of serotonin on collagen induced platelet aggregation: collagen 3 μg/mL
Description: Blood samples were collected from male adult Spraque-Dawley rats, and platelet rich plasma (PRP) and platelet poor plasma (PPP) were obtained by centrifugation. Aggregation was elicited by adding collagen 3 μg/mL in PRP, and the aggregation response was recorded as the change of light transmission of PRP with Lumi-aggregometer. In FIG. 9a, collagen induced platelet aggregation, and the aggregation response was amplified by adding 10 μM serotonin in 30 seconds before adding collagen, as shown in FIG. 9b.

[2] = test system: rat de-endothelial thoracic descending aorta; test: Serotonin induced rat thoracic aorta contraction (organ bath); design: species or system Sprague Dawley rats; settings: 0.03 or 0.1 μM in organ bath; cumulative serotonin 30 nM-0.1 mM; FIG. 10
Description: Thoracic aortae were obtained from adult male Sprague Dawley rats. The aortae were cleared of adhering periadventitial fat and cut into strips 3-4 mm in length. […] The tissue was incubated with warmed (37° C.), oxygenated (95% O2/5% CO2) Krebs-Henseleit solution (KBS, pH7.4) consisting of NaCl 118.2 mM, KCl 4.7 mM, KH2PO4 1.2 mM, MgSO4 1.2 mM, CaCl2·2H2O 1.9 mM, NaHCO3 25 mM and glucose 11.7 mM. Indomethacin (10 μM) was added to prevent the production of prostanoids. One end of the segment was fixed to the organ bath chamber, and the other to a force transducer (Type BG 25; Gould, Oxnard, Calif., USA) in which tension is recorded (model RS 3400 recorder, Gould). The preparations were allowed to equilibrate for at least 60 min under a passive tension of 1.5±0.2 g. Cumulative responses to serotonin (30 nM-0.1 mM) were examined for 20 min after addition of 0.03 or 0.1 μM compound 116 to the organ bath. Contraction responses were expressed as the percentage of maximum contraction.

[3] = test system: LPS induced endotoxaemia; test: Post-treatment of multiple doses on LPS induced endotoxaemia in mice model (survival); format: in vivo; settings: for survival curve versus vehicle control group: Log rank test, p<0.01
Description: 12 hours after intraperitoneal injection of lipopolysaccharide (LPS) 100 mg/kg, compound 116 100 μg/kg or 300 μg/kg were administrated intraperitoneally or subcutaneously every 6 hour till 48 hours after LPS insults. […] Survival curves were compared by the Log rank test, and 3 days survival rate was compared by the chi square test.

[4] = target: 5-HT2A receptor (Homo sapiens, UniProt P28223); test: 5-HT2A receptor binding affinity; settings: for Ki: 5-HT2A receptor binding affinity; for 5-HT2A receptor binding affinity compared with sarpogrelate and ketanserin: comparison of Ki values, Table 8
5-HT2A receptor, sequence (P28223 whole entry): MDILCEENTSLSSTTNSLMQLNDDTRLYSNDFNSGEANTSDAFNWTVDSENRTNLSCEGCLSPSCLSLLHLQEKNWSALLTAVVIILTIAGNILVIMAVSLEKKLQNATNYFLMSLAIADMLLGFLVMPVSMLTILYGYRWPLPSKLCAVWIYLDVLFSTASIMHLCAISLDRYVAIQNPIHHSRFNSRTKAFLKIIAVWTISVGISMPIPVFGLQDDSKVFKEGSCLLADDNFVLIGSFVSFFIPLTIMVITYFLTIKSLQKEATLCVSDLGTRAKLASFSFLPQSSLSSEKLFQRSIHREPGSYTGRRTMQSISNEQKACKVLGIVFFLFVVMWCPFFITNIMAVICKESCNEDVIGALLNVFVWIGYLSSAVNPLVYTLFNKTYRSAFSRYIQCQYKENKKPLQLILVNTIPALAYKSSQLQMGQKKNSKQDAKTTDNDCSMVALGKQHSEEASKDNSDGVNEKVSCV
Excerpt: The 5-HT2A Receptor Binding Affinity of Compounds 116, 157 and 167.
The 5-HT2A receptor binding affinity data are represented by Ki values.

| Ki [4] [nM] | SMILES | 5-HT2A receptor binding affinity compared with sarpogrelate and ketanserin [4] | also measured |
| --- | --- | --- | --- |
| 2.21 | COc1cc2c(c(-c3ccccc3F)c1OC)CN(CCc1ccccc1)CC2 [Compound 157] | higher than those of the well-known 5-HT2A receptor antagonists |  |
| 0.119 | COc1cc2c(c(-c3ccccc3F)c1OC)CN(CCc1ccccc1Cl)CC2 [Compound 167] | higher than those of the well-known 5-HT2A receptor antagonists | effect of post-treatment of multiple doses on LPS induced endotoxaemia ([3]; same method as for compound 116, FIG. 8): Protective Effects |
|  | O=C(c1ccc(F)cc1)C1CCN(CCn2c(=O)[nH]c3ccccc3c2=O)CC1 [ketanserin, reference compound] |  | amplifying effects of serotonin on collagen induced platelet aggregation ([1]; 10 μM added 30 seconds before 10 μM serotonin): blocked |
| 8.39 | COc1cccc(CCc2ccccc2OCC(CN(C)C)OC(=O)CCC(=O)O)c1 (centres unmarked) [sarpogrelate, reference compound] |  |  |

| SMILES | Ki [4] [nM] | 5-HT2A receptor binding affinity compared with sarpogrelate and ketanserin [4] | also measured |
| --- | --- | --- | --- |
| COc1ccc(-c2c(O)c(OC)cc3c2CN(CCc2ccccc2F)CC3)c(OC)c1 [Compound 116] | 3.47 | higher than those of the well-known 5-HT2A receptor antagonists | amplifying effects of serotonin on collagen induced platelet aggregation ([1]; 3 μg/mL added 30 seconds before 10 μM serotonin): blocked; platelet activation ([1]; FIGS. 9a-9d): Did not Exert Platelet Activation; serotonin induced smooth muscle contraction [2]: inhibits serotonin induced smooth muscle contraction in a dose dependent manner; survival curve versus vehicle control group ([3]; 100 μg/kg i.p. or s.c. every 6 hour from 12 h till 48 hours after LPS 100 mg/kg i.p.): shifted the survive curve rightward significantly; survival curve versus vehicle control group ([3]; 300 μg/kg i.p. or s.c. every 6 hour from 12 h till 48 hours after LPS 100 mg/kg i.p.): shifted the survive curve rightward significantly |

Reference: patent US8552028B2, “8-phenylisoquinolines and pharmaceutical composition used in treatment for sepsis” (National Taiwan University, priority 2011, dated 2013)
